Measurements published in US5576319A, “Pyrrolo-pyridine derivatives” (Merck, Sharp & Dohme Ltd., priority 1994, dated 1996).
Read-outs that look alike come from different tables or passages of the source. Blank lines part the entries; values can stand above or below the molecule they belong to.

Tests used:
[1] = molecular target: T1, human dopamine D4 receptor subtype (Homo sapiens, UniProt P21917); experiment: [3H]-Spiperone binding, displacement from human dopamine D4 receptor subtype expressed in clonal cell lines
T1 sequence (P21917 1-419): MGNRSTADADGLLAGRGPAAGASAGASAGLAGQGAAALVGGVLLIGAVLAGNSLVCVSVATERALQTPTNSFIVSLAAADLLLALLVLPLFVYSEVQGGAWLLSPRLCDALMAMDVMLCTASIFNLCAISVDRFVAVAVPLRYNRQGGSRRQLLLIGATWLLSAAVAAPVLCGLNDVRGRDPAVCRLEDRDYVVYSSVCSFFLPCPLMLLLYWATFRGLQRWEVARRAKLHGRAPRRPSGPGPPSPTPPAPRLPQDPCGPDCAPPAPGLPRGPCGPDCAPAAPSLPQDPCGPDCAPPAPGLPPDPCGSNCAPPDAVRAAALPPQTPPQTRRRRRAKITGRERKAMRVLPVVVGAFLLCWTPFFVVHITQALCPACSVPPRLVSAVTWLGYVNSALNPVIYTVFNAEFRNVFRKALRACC

[2] = molecular target: T2, human dopamine D2 receptor subtype (Homo sapiens, UniProt P14416); experiment: [3H]-Spiperone binding, displacement from human dopamine D2 receptor subtype expressed in clonal cell lines
T2 construct: expressed in transfected cells

rat = experiment: Extrapyramidal disorders: apomorphine-induced stereotypy in the rat; type: in vivo
From the text: 2. Extrapyramidal Disorders
Representative compounds according to the invention have been tested for their effect on apomorphine-induced stereotypy in the rat. This is an art-recognised model of the potential to induce extrapyramidal side-effects.

rats = experiment: Sedation: spontaneous motor activity of rats in novel cages with photocells (number of cage crossings); type: in vivo; conditions: rat
From the text: Representative compounds according to the invention have been tested for their effects on spontaneous motor activity occasioned by placing rats in novel cages equipped with photocells in order to determine the number of cage crossings. This is an art-recognised model of the sedation potential of a given test compound.

T2 sequence (P14416 whole entry): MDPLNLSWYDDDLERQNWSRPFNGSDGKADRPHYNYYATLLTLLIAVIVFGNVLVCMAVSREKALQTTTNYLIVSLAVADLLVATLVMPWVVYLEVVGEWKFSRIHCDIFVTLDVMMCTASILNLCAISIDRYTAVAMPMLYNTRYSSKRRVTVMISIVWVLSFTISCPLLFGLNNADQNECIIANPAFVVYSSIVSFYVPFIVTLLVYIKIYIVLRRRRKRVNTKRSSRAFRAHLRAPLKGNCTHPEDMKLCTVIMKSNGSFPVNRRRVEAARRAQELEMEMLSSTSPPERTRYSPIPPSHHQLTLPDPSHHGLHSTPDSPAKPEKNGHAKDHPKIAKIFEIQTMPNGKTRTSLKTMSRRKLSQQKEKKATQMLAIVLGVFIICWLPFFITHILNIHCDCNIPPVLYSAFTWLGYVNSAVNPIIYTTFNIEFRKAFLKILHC

Ki ([1]; human D4, clonal cell line membranes, 0.2 nM [3H]-spiperone): 1.3 nM
D4 :D2 ratio ([1]; ratio of Ki values, selectivity for D4 over D2, 60 min): greater than 1150
Ki ([2]; human D2, clonal cell line membranes, 0.2 nM [3H]-spiperone, read-out: Ki value for the D2 subtype): > 1500 nM
Structure (SMILES): COc1ccc(N2CCN(Cc3c[nH]c4ncccc34)CC2)cc1 [Example 2, 3-(4-[4-Methoxyphenyl]piperazin-1-yl)methyl-1H-pyrrolo[2,3-b]pyridine]

Structure (SMILES): Clc1ccc(N2CCN(Cc3c[nH]c4ncccc34)CC2)cc1 [Example 5, 3-(4-[4-Chlorophenyl]piperazin-1-yl)methyl-1H-pyrrolo[2,3-b]pyridine]
potential to induce extrapyramidal side-effects (apomorphine-induced stereotypy) (rat; doses up to 1.0 mg/kg): no potential to induce the extrapyramidal side-effects
sedation (spontaneous motor activity) (rats; doses of up to 10-30 mg/kg): no evidence for sedation
Ki [2]: 860 nM

Structure (SMILES): O=C(CCCN1CCC(O)(c2ccc(Cl)cc2)CC1)c1ccc(F)cc1 [haloperidol, reference compound]
potential to elicit extrapyramidal side-effects (apomorphine-induced stereotypy) (rat; doses of 0.5 and 1.0 mg/kg): significant potential to elicit extrapyramidal side-effects
sedation (spontaneous motor activity) (rats; dose of 1 mg/kg): marked sedation
